Test results reported in patent US9540323B2 (BRISTOL-MYERS SQUIBB COMPANY, priority 2012, dated 2017).

Columns and labels:
[1] = test system: human platelet rich plasma (PRP); test: ADP induced platelet aggregation assay; details: Homo sapiens, Platelet, 5 min, read-out: PA IC50 (μM) @ 10 μM ADP, human PRP, 10 μM ADP, AUC at 5 minute
[2] = target: cloned human P2Y1 receptors (Homo sapiens (Human), UniProt P47900); test: Binding Assay B - Scintillation Proximity Assay (SPA) for P2Y1 binding, [33P] 2MeS-ADP; details: SPA, 0.3 nM [33P] 2MeS-ADP, Cheng-Prusoff; read-out: P2Y1 Ki (nM) using binding assay B
Experimental: Binding Assay B—Scintillation Proximity Assay (SPA) for P2Y1 Binding
A SPA membrane binding assay was used to identify inhibitors of [^33P] […] Reactions were allowed to proceed to completion at room temperature for 1 hour followed by centrifugation of the plate for 5 min. About 40 μL of the aqueous solution was aspirated. Plates were sealed and the [^33P]

Chain of cloned human P2Y1 receptors (P47900 whole entry): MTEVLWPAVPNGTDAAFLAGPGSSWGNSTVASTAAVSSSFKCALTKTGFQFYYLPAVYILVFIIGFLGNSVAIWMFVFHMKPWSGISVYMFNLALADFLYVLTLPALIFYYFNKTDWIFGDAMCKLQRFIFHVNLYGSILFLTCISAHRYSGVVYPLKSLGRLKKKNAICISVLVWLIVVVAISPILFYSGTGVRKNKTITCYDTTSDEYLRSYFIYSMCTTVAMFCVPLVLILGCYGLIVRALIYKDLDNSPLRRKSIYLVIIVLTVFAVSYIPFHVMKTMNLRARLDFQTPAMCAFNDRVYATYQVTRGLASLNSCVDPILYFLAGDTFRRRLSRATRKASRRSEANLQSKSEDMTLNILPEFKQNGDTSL

`CC(C)(C)CN1CCC(c2ccc(NC(=O)Nc3ccccc3N3CC(C)(C)c4c(C(F)(F)F)ccc(O)c43)cc2)CC1` [Example 2, 1-(2-(7-Hydroxy-3,3-dimethyl-4-(trifluoromethyl)indolin-1-yl)phenyl)-3-(4-(1-neopentylpiperidin-4-yl)phenyl)urea] was tested, and the IC50 [1] was 0.13 µM and the Ki [2] was 3.4 nM.

In the case of `CC1(C)CN(c2ccccc2NC(=O)Nc2ccc(OC(F)(F)F)cc2)c2c(O)cc(F)c(-c3ccc(C(F)(F)F)cc3)c21` [Example 216, 1-(2-(5-Fluoro-7-hydroxy-3,3-dimethyl-4-(4-(trifluoromethyl)phenyl)indolin-1-yl)phenyl)-3-(4-(trifluoromethoxy)phenyl)urea], the IC50 [1] is reported as 0.14 µM and the Ki [2] is reported as 54.7 nM.

Work on `CC1(C)CN(c2ccccc2NC(=O)Nc2ccc(C(F)(F)F)cc2)c2c(O)ccc(Cl)c21` [Example 57, 1-(2-(4-Chloro-7-hydroxy-3,3-dimethylindolin-1-yl)phenyl)-3-(4-(trifluoromethyl)phenyl) urea] yielded an IC50 [1] of 0.9 µM and a Ki [2] of 8.3 nM.

`CC1(C)CN(c2ccccc2NC(=O)Nc2ccc(OC(F)(F)F)cc2)c2c(O)cc(F)c(C3CC3)c21` [Example 252, 1-(2-(4-Cyclopropyl-5-fluoro-7-hydroxy-3,3-dimethylindolin-1-yl)phenyl)-3-(4-(trifluoromethoxy)phenyl)urea] was tested, and the IC50 [1] was 0.42 µM and the Ki [2] was 18.3 nM.

`CC1(C)CN(c2ccccc2NC(=O)Nc2ccc(OC(F)(F)F)cc2)c2c(O)cc(F)c(-c3cccc(Cl)c3)c21` [Example 235, 1-(2-(4-(3-Chlorophenyl)-5-fluoro-7-hydroxy-3,3-dimethylindolin-1-yl)phenyl)-3-(4-(trifluoromethoxy)phenyl)urea] gave an IC50 [1] of 0.23 µM and a Ki [2] of 19.5 nM.

In the case of `CC1(C)CN(c2ccccc2NC(=O)Nc2ccc(OC(F)(F)F)cc2)c2c(O)cc(F)c(-c3ccc(Cl)cc3F)c21` [Example 236, 1-(2-(4-(4-Chloro-2-fluorophenyl)-5-fluoro-7-hydroxy-3,3-dimethylindolin-1-yl)phenyl)-3-(4-(trifluoromethoxy)phenyl)urea], the IC50 [1] is reported as 0.23 µM and the Ki [2] is reported as 17 nM.

In the case of `CC1(C)CN(c2ccccc2NC(=O)Nc2ccc(OC(F)(F)F)cc2)c2c(O)ccc(-c3nc4ccccc4s3)c21` [Example 83], the IC50 [1] is reported as 0.86 µM and the Ki [2] is reported as 14.7 nM.

With `CC1(C)CN(c2ccccc2NC(=O)Nc2ccc(OC(F)(F)F)cc2)c2c(O)cc(F)c(-c3nc4ccc(Cl)cc4s3)c21` [Example 148, 1-(2-(4-(6-Chlorobenzo[d]thiazol-2-yl)-5-fluoro-7-hydroxy-3,3-dimethylindolin-1-yl)phenyl)-3-(4-(trifluoromethoxy)phenyl)urea] the IC50 [1] was 0.68 µM and the Ki [2] was 83 nM.

`CCOC(=O)C1(C)CN(c2ccccc2NC(=O)Nc2ccc(OC(F)(F)F)cc2)c2c(O)ccc(Cl)c21` (stereo not drawn) [Example 74, Ethyl 4-chloro-7-hydroxy-3-methyl-1-(2-(3-(4-(trifluoromethoxy)phenyl)ureido)phenyl)indoline-3-carboxylate] showed an IC50 [1] of 3.11 µM and a Ki [2] of 19.8 nM.

For `CC1(C)CN(c2ccccc2NC(=O)Nc2ccc(OC(F)(F)F)cc2)c2c(O)cc(F)c(-c3ccc(Cl)cc3)c21` [Example 214, 1-(2-(4-(4-Chlorophenyl)-5-fluoro-7-hydroxy-3,3-dimethylindolin-1-yl)phenyl)-3-(4-(trifluoromethoxy)phenyl)urea], the IC50 [1] was 0.21 µM and the Ki [2] was 13.7 nM.

With `CC1(C)CN(c2ccccc2NC(=O)Nc2ccc(OC(F)(F)F)cc2)c2c(O)cc(F)c(-c3ccc(C(F)(F)F)nc3)c21` [Example 135, 1-(2-(5-Fluoro-7-hydroxy-3,3-dimethyl-4-(6-(trifluoromethyl)pyridin-3-yl)indolin-1-yl)phenyl)-3-(4-(trifluoromethoxy)phenyl)urea] the IC50 [1] was 0.15 µM and the Ki [2] was 8.7 nM.

With `CC1(C)CN(c2ccccc2NC(=O)NC2CCN(CC(F)(F)F)CC2)c2c(O)ccc(C(F)(F)F)c21` [Example 3, 1-(2-(7-Hydroxy-3,3-dimethyl-4-(trifluoromethyl)indolin-1-yl)phenyl)-3-(1-(2,2,2-trifluoroethyl)piperidin-4-yl)urea] the IC50 [1] was 3.1 µM and the Ki [2] was 4.9 nM.
